Assay results taken from patent US11878075B2, “Sustained release formulations of dysoxylum binefacterum” (COUNCIL OF SCIENTIFIC AND INDUSTRIAL RESEARCH, priority 2018, dated 2024).

Tests used:
[1] = system: TNF-alpha production in THP-1 cells; test: In-vitro cytokine inhibition in LPS-stimulated THP-1 cells (TNF-α ELISA); format: cell-based, human; details: THP-1 cells, 1.56, 3.12, and 6.25 μg/mL
Procedure: For the in vitro analysis of pro-inflammatory cytokine (TNF-α), human leukemia THP-1 cells were seeded in a 24-well plate at a density of 4×10^5 cells/ml of RPMI medium per well. THP-1 cells were then treated with PMA (20 ng/ml) for differentiation into macrophages for 18 h followed by a rest period of 48 h. Cells were further co-treated with test samples and 1 μg/ml of lipopolysaccharide (LPS) in a serum-free medium. Culture supernatant was harvested after 24 h for analysis of TNF-α by using OptEIA ELISA Kits from BD Biosciences. Total protein content for all the samples was calculated by using Bradford reagent from Bio-Rad Laboratories. All samples were normalized by dividing cytokine concentration with total quantity of protein. Betamethasone was used as positive control in this study.

TNF-α [2] = test: LPS induced septic shock model, serum TNF-α ELISA; format: in vivo, BALB/C mice; details: 20 mg/kg (PO)
Procedure: The effect of rohitukine, hydroalcoholic extract (A002-A) and rohitukine-enriched fraction (A002-AEF) on TNF-α secretion was studied in LPS induced septic shock model in BALB/C mice. BALB/C female mice (20-25 g) were randomly divided into 6 groups (n=4 per group). Animals were treated according to the following pattern: group 1 (vehicle), group 2 (LPS, 20 mg/kg), group 3 (Rohitukine, 20 mg/kg), group 4 (A002-A, 200 mg/kg), group 5 (A002-AEF, 200 mg/kg), group 6 (dexamethasone, 10 mg/kg). The hydroalcholic extract (A002-A) and its enriched fraction A002-AEF was dissolved in water and dexamethasone was dissolved in PBS. PBS/water was used as a vehicle control. Compounds and vehicle were administered perorally for 1 h prior to treatment with LPS. LPS was injected through intraperitoneal route for 5 h. Blood was collected and serum was extracted for performing ELISA analysis of TNF-α cytokine. The ELISA was performed according to manufacturer's instructions (BD Bioscience). The absorbance was measured at 450 nm and each estimated cytokine value was normalized with total serum protein.

in vivo = details: male, SD, rat
Procedure: The pharmacokinetic study was performed in male SD rats. First the pharmacokinetic study of “rohitukine” was performed by both intravenous as well as per oral (PO) routes in order to understand the oral exposure and oral bioavailability of rohitukine. Rohitukine was administered at 5 mg/kg by IV route and at 50 mg/kg by oral route. For comparative oral pharmacokinetic study of plain extract (A002-AEF) and SR formulation “SR-A002-AEF” formulation (filled in 9e1 capsules), the dose equivalent to 6.77 mg/kg dose of rohitukine was administered in SD rats in both these groups. Blood samples were collected (n=3/time point) at 0.083 (IV only), 0.25, 0.5, 1, 2, 4, 8 and 24 h, post-dose. At each time point about 200 μL of blood was collected by jugular vein into a labeled microfuge tube containing 200 mM K2EDTA solution (20 μL per mL of blood) and equivalent volume of heparinized saline was replaced following sample collection. The blood samples were processed to obtain the plasma samples within 30 min of scheduled sampling time. All plasma samples were stored below −60° C. until bioanalysis. The plasma samples were analyzed for rohitukine content using a fit-for purpose LC-MS/MS method with a lower limit of quantification (LLOQ) of 9.95 ng/mL. The pharmacokinetic parameters of rohitukine were calculated using the non-compartmental analysis tool of validated Phoenix® WinNonlin® software (version 6.3).

IL-6 = test: Collagen induced arthritis model, serum IL-6; format: in vivo, DBA/1J mice; details: oral administration in arthritic mice, day 34 to day 48
Procedure: (§1) Six weeks old DBA/1J mice (procured from Jackson Laboratories, USA) were used in this study. On the day of the immunization (day 1), required amount of Chicken collagen II (CII), 2 mg/ml (Chondrex Inc, USA) stock solution was thawed at 4° C. into a small (20 ml) glass bottle. Equal volume of CII solution was added to the complete Freund's adjuvant (CFA), 1 mg/ml, (Sigma aldrich, USA) in 1:1 ratio and homogenized at 4° C. to produce a homogenous, stiff, white creamy emulsion for immunization. Mice were weighed and anesthetized with isoflurane. 150 μl of CII/CFA (1:1) emulsion was injected intradermally at two different sites into the mice lower back (previously shaven) on day 1. Mice were given the booster on day-21 in a similar manner as day 1 except that CII was emulsified in incomplete Freund's adjuvant. Mice were given booster of LPS from E. coli (50 μg/mouse; Sigma Aldrich, USA) on day 28. Dosing of the test samples in DBA/1J mouse CIA model was initiated after development of clinical symptoms. Animals were randomized into different treatment groups based on clinical scores on day 33. Treatment continued from day 34 to day 48. Serum IL-6, TNF-α estimation was done using ELISA kit from R & D Systems, USA. All values are expressed as Mean±SEM. * p<0.05 as compared to vehicle treatment, one way ANOVA followed by Dunnett's multiple comparison test.

[3] = pH dependent stability of rohitukine; format: physicochemical; details: pH 1.2 buffer, pH 4.0 buffer, phosphate buffer pH 6.8, PBS pH 7.4, SGF (pH 1.2), SIF (pH 6.8) and plasma up to 24 hrs
Procedure: The stability of rohitukine was performed in pH 1.2 buffer, pH 4.0 buffer, phosphate buffer pH 6.8, phosphate buffered saline pH 7.4, SGF (pH 1.2), SIF (pH 6.8) and plasma up to 24 hrs. The % of rohitukine hydrolyzed was determined by HPLC analysis. The HPLC analysis was carried out using the method as described in example 1.

TNF-α [4] = test: Collagen induced arthritis model, serum TNF-α; format: in vivo, DBA/1J mice
Procedure: as §1

[5] = rats, oral and intravenous administration; cited from earlier work

bioavailability (in vivo)	AUC(0-t) (in vivo; iv, 5 mg/kg)	clearance (in vivo; iv, 5 mg/kg)	clearance relative to normal hepatic blood flow (55 mL/min/kg) (in vivo; iv, 5 mg/kg)	half-life (in vivo; iv, 5 mg/kg)	volume of distribution relative to normal total body water (0.7 L/kg) (in vivo; iv, 5 mg/kg)	AUC(0-t) (in vivo; po, 50 mg/kg)	Cmax (in vivo; po, 50 mg/kg)	half-life (in vivo; po, 50 mg/kg)	median time to reach the maximum plasma concentration (in vivo; po, 50 mg/kg)	stability of rohitukine (% hydrolyzed by HPLC) [3]	Compound	inhibition of LPS-stimulated TNF-alpha levels [1]	serum TNF-alpha levels (TNF-α [2])	serum IL-6 cytokine levels (IL-6)	serum TNF-alpha (TNF-α [4]; 5-15 mg/kg (PO) doses)	serum TNF-alpha cytokine (TNF-α [4]; 5-30 mg/kg doses)	biological half-life [5]
											Cc1cc(=O)c2c(O[C@@H]3OC(CO)[C@@H](O)[C@H](O)C3O)cc(O)cc2o1 (stereo partly drawn) [schumaniofioside A]	significant inhibition of TNF-alpha					
> 100%	1130 ng·h/mL	72.7 mL/min/kg	~1.32 fold	22.9 min	~2.41 fold	26400 ng·h/mL	14900 ng/mL	63.6 min	0.25 h	stable at all the conditions tested	Cc1cc(=O)c2c(O)cc(O)c([C@H]3CCN(C)C[C@H]3O)c2o1 [rohitukine]	significant inhibition of TNF-alpha	not able to significantly inhibit the serum TNF-alpha levels	decreased levels of serum IL-6 cytokine	could not inhibit serum TNF-alpha	no significant inhibition of TNF-alpha cytokine	1-2 h
